The values that follow come from publication PMC12383145, “Fluorescent Peptides Internalize HeLa Cells and Kill Multidrug-Resistant Clinical Bacterial Isolates” (Antibiotics, 2025).

Values joined by “and” are separate entries in the source; they are usually repeats but may differ in a detail not shown here. Identical values can stand only once. Residues, ends and D or L forms follow the SMILES beside them. *: point of attachment. RhodamineB = CCN(CC)c1ccc2c(-c3ccccc3C(=O)*)c3ccc(=[N+](CC)CC)cc-3oc2c1

Common to all, as to format: cell-based
A short description of series [1]: MTT cytotoxicity assay in HeLa cells.
The test system of another series is HeLa cells. In words: Fluorescence confocal microscopy, colocalization analysis (ImageJ JaCoP). Particulars: 2 h at IC50, colocalization with SMA antibody. As to the method: The possible cellular distribution of the peptides was determined by colocalization analysis of the Rhodamine B fluorescent signal, with fluorophores used to stain the nucleus (Hoechst 33342) and cytoplasm components (SMA antibody). ImageJ 1.54f analysis software and the JaCoP plugin were used to analyze signal colocalization.
HeLa cells (>70% confluence) were seeded on sterile round coverslips in 24-well plates with DMEM + 5% FBS and incubated at 37 °C, 5% CO2 for 24 h. After adhesion, the medium was replaced, and cells were treated with fluorescent peptides at their IC50 for 2 h. Then, cells were washed with PBS under constant stirring (3 × 10 min). Cellular fixation was performed using a solution containing 2% paraformaldehyde and 1% sucrose 100 mM in PBS for 30 min, followed by PBS washes (2 × 10 min). Permeabilization was carried out using a solution of 0.1% Triton X-100 and 20 mM glycine in PBS for 10 min, followed by two additional PBS washes. Blocking was performed with 1% BSA and 20 mM glycine in PBS for 10 min. […] For the fluorescence lecture, 5 µL of Fluoromount mounting medium was applied to the slide, and the coverslip containing the cells was inverted onto the medium. Slides were allowed to be dry-protected from light, and cells were visualized using a Leica DMi8 fluorescence confocal microscope. […]

In the next series the test system is MCF-7 cells. As to the kind of experiment: MTT cytotoxicity assay in MCF-7 cells. Particulars: 200 µg/mL, 2 h. As to the method: An MTT assay was performed in MCF-7 cells with FAM-1 (FAM-RWQWRWQWR) and RhB-1 (RhB-RWQWRWQWR) peptides following a 2 h treatment.
For orientation: Tetrazolium assays rely on reduction of a dye to a coloured formazan, in cell work by metabolically active cells.

The subject of series [2] is S. aureus clinical isolate 11719. Particulars: clinical isolate 11719, 24 h.

As for `CCN(CC)c1ccc2c(-c3ccccc3C(=O)N[C@@H](CCCNC(=N)N)C(=O)N[C@@H](Cc3c[nH]c4ccccc34)C(=O)N[C@@H](CCC(N)=O)C(=O)N[C@@H](Cc3c[nH]c4ccccc34)C(=O)N[C@@H](CCCNC(=N)N)C(=O)N[C@@H](Cc3c[nH]c4ccccc34)C(=O)N[C@@H](CCC(N)=O)C(=O)N[C@@H](Cc3c[nH]c4ccccc34)C(=O)N[C@@H](CCCNC(=N)N)C(N)=O)c3ccc(=[N+](CC)CC)cc-3oc2c1` [RhB-1, RhB-RWQWRWQWR] (RhodamineB-RWQWRWQWR-NH2), in series [1], the concentration for half-maximal inhibition (IC50) (usually the concentration needed to halve the response being measured) is 117 µg/mL and 61 µM. Besides, in the series with HeLa cells, the cellular localization result was “internalized and distributed in the cytoplasm”. The cell population remaining with MCF-7 cells amounted to 8%. For the same molecule, in series [2], the “Minimal bactericidal concentration (MBC)” value was determined as 105 µM and the “Minimal inhibitory concentration (MIC)” value was 52 µM.
